The source of these data is publication PMC9186361 (Drug Delivery, 2022).

One data set deals with T1, thrombin (Homo sapiens, UniProt P00734).
T1 construct: Human thrombin was purchased from Hematologic Technologies Inc. (Essex Junction, VT); purchased Hematologic Technologies Inc. (Essex Junction, VT)
The experiment in a line: Hydrolysis of chromogenic substrate S2238 by thrombin in vitro. To be noted: rutin up to 50 μM, 0.4 U/mL thrombin. Type of data set: biochemical. The source says: We tested the antithrombotic effects of NanoR and NaR ex vivo and in vivo. Thrombin plays a pivotal role in the coagulation process, and its amount reflects the hemostatic function (Mann, [2003]). […] In our clot formation study, the treatment with NanoR and NaR led to delayed clotting initiation time and a limited extent of clot formation. Again, NanoR exerted a stronger anticoagulatory effect than NaR, and excess exogenous PDI restored the coagulation function of pretreated plasma in clot formation assay. […] The link between obstructive atherosclerosis in the epicardial coronary arteries and myocardial ischemia is well established. In the past several decades, however, a number of studies have discovered that coronary microvascular dysfunction and remodeling contribute to myocardial ischemia in patients with normal coronary arteries. […] Recently, a novel two-stage mechanism for the action of FeCl3 in thrombus formation has been proposed. The first stage is based on colloidal chemistry principles whereby cells and plasma proteins adhere and aggregate due to the binding of negatively charged proteins to positively charged iron species. The extent of this stage is dependent on effective FeCl3 concentration, which is governed by intraluminal mass transport. […] (A) The hydrolysis of chromogenic substrate S2238 by different concentrations of thrombin was determined.

Data set [1] is described as follows: Saturation solubility of rutin by shake flask method. Type of data set: physicochemical. The note with it: thermodynamic from solid.
For the next data set, the system named is PDI. Set-up: method as in Jasuja et al., 2012. To be noted: insulin-based turbidimetric assay; 95% CI 1.1–10.7 μM; ref Jasuja et al., 2012; read-out: IC50 of PDI inhibition; cited from earlier work.

In brackets after ≈: the same amount, converted by molar mass.

As to `C[C@@H]1O[C@@H](OC[C@H]2O[C@@H](Oc3c(-c4ccc(O)c(O)c4)oc4cc(O)cc(O)c4c3=O)[C@H](O)[C@@H](O)[C@@H]2O)[C@H](O)[C@H](O)[C@H]1O` [rutin, quercetin-3-O-rutinoside], the “effect on thrombin activity (hydrolysis of S2238)” value on thrombin is “did not inhibit thrombin proteolytic activity”; at thrombin (listed as native rutin) it was “did not affect the activity of thrombin”. Besides, the solubility at 72 h in data set [1] (organic solvent or mixture, in 1,2-propylene glycol, 37 °C, 72 h) came to 32 ± 2 mg/mL (≈ 52.4 mM); in data set [1] (self-emulsifying formulation F2, 37 °C, in formulation F2) it was 24.3 ± 3.2 mg/mL (≈ 39.8 mM); in data set [1] (self-emulsifying formulation F5, 37 °C, in formulation F5), 19.2 ± 2.8 mg/mL (≈ 31.4 mM); in data set [1] (self-emulsifying formulation F7, 37 °C, in formulation F7), 16.2 ± 3.7 mg/mL (≈ 26.5 mM); in data set [1] (in Labrasol, 37 °C, 72 h), 5.2 ± 0.18 mg/mL (≈ 8.52 mM). Moreover, the IC50 with PDI was 6.1 µM.

What is called solubility is the concentration that dissolves in the medium under given conditions. One may read the IC50 as the midpoint of a concentration-inhibition curve.
